Test: Stability study (impurities) at 40° C./75% RH for one week
Type: physicochemical
Experimental: Stability study was conducted for active ingredient, compositions of the present invention and comparative composition. The study was conducted at 40° C./75% RH for one week.

[1] = After one week at 40° C./75% RH, Sample (API)

CCCCCCCCc1ccc(CCC(N)(CO)CO)cc1.Cl [API, 2-amino-2-[2-(4-octylphenyl)ethyl]-propane-1,3-diol]
0.05 % w/w: Impurity 1 [1] | Total Impurities [1] | Impurity 1 (Initial, Sample) | Total Impurities (Initial, Sample)

From US20160128951A1, “PHARMACEUTICAL COMPOSITIONS OF FINGOLIMOD” (AIZANT DRUG RESEARCH SOLUTIONS PVT LTD, priority 2013, published 2016)
